These results are taken from patent publication US20240067651A1 (Biohaven Therapeutics Ltd., priority 2019, published 2024).

The term Papp denotes a coefficient for how fast a substance crosses the barrier.

Data set [1] is described as follows: Stability in Simulated Gastric Fluid (SGF). In kind it is in vitro ADME. Also on record: key: % parent compound remaining relative to 0-minute sample. An outline of the steps:
(§1)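 2 μg/mL final; SGF + pepsin pH 1.2 or SIF + pancreatin pH 6.8; 37° C, 150 rpm, 0–60 min. ACN quench with propranolol IS, LC-MS/MS. % parent vs 0 min; t1/2 from ln plot.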

Data set [2] is described as follows: Stability in Simulated Intestinal Fluid (SIF). In kind it is in vitro ADME. Set-up: key: % parent compound remaining relative to 0-minute sample. An outline of the steps: as §1
The nature of the next data set: Plasma Stability. In kind it is in vitro ADME, human. The procedure, abridged: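 Parent compound quantified by LC-MS/MS after acetonitrile precipitation, reported as percent of control remaining (triplicate). Incubation: 1 hour, 37° C, fresh human plasma, compound at 1 μM.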
The nature of data set [3]: Caco-2 Permeability Assay. As to conditions: human. In kind it is in vitro ADME, human. An outline of the steps: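 Bidirectional transport at 37 °C for 90 min, 10 μM donor concentration, with or without Pgp inhibitor, across 21-day Caco-2 monolayers with TEER >600 […] in HEPES-buffered HBSS, pH 7.4. LC-MS/MS of donor and receiver samples gives Papp, B→A/A→B efflux ratio and mass recovery.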
(In general: Caco-2 cells form a polarised layer with tight junctions and transporters.)

[4] abbreviates: % @ 1 h (remaining) in simulated gastric fluid.
Setting [5] is: % @ 1 h (remaining) in simulated intestinal fluid.
The mark [6] stands for this setting: % @ 1 h (remaining) in human plasma.
[7] abbreviates: Caco-2, pH 7.4, Caco-2 monolayer.
Where [8] appears, read: % remaining at 1 h in simulated gastric fluid, the 15th table.
Where [9] appears, read: % remaining at 1 h in simulated intestinal fluid, the 15th table.
Where [10] appears, read: % remaining at 1 h in human plasma, the 15th table.
Where [11] appears, read: Caco-2, pH 7.4, Caco-2 monolayer, the 15th table.

Take `CC(C)OCCn1c(SCOC(=O)N(C)C(C)C)nc(=O)c2[nH]ccc21.O=C(O)C(F)(F)F` [Example 166]: the SGF in data set [1] (setting [4]) is 99% @ 1 h. In addition, the SIF in data set [2] (setting [5]) was 99% @ 1 h. In addition, the “human Plasma stability” value in “Plasma Stability” (setting [6]) stood at 100% @ 1 h. For the same compound, in data set [3] (setting [7]), the Papp at 90 min, 10 µM amounted to 7.08 ×10⁻⁶ cm/s.
For `CC(C)OCCn1c(SCOC(=O)N(C)C(C)(C)C)nc(=O)c2[nH]ccc21.O=C(O)C(F)(F)F` [Example 167], the SGF in data set [1] (setting [4]) was 99% @ 1 h. Further, the SIF in data set [2] (setting [5]) is on record as 99% @ 1 h. Also, in the data set “Plasma Stability” (setting [6]), the “human Plasma stability” value stood at 98% @ 1 h. Moreover, the apparent permeability coefficient (Papp) at 90 min, 10 µM in data set [3] (setting [7]) is 17.8 ×10⁻⁶ cm/s.
Consider `CC(C)OCCn1c(SCOC(=O)N(C)C(C)(C)C)nc(=O)c2c1ccn2COC(=O)N(C)C(C)(C)C.O=C(O)C(F)(F)F` [Example 168], for which the SGF in data set [1] (setting [4]) is listed as 100% @ 1 h. Moreover, the SIF in data set [2] (setting [5]) is on record as 94% @ 1 h. For the same compound, in the data set “Plasma Stability” (setting [6]), the “human Plasma stability” value is recorded as 88% @ 1 h. Further, the Papp at 90 min, 10 µM in data set [3] (setting [7]) amounted to 28.1 ×10⁻⁶ cm/s.
As to `CCN(C)C(=O)OCn1ccc2c1c(=O)nc(SCOC(=O)N(C)C(C)C)n2CCOC(C)C.O=C(O)C(F)(F)F` [Example 170], the SGF in data set [1] (setting [4]) is 99% @ 1 h. Moreover, the SIF in data set [2] (setting [5]) is given as 92% @ 1 h. In the data set “Plasma Stability” (setting [6]), the “human Plasma stability” value is given as 99% @ 1 h. In addition, the Papp at 90 min, 10 µM in data set [3] (setting [7]) amounted to 14.1 ×10⁻⁶ cm/s.
Regarding `CC(C)OCCn1c(SCOC(=O)N(C)C(C)C)nc(=O)c2c1ccn2COC(=O)N(C)C(C)C.O=C(O)C(F)(F)F` [Example 171], the SGF in data set [1] (setting [4]) was 100% @ 1 h. Besides, the SIF in data set [2] (setting [5]) is 89% @ 1 h. Also, in “Plasma Stability” (setting [6]), the “human Plasma stability” value is reported as 97% @ 1 h. The same compound yielded a Papp at 90 min, 10 µM in data set [3] (setting [7]) of 21.7 ×10⁻⁶ cm/s.
For the compound `CC(C)CN(C)C(=O)OCSc1nc(=O)c2[nH]ccc2n1CCOC(C)C` [Example 172], the SGF in data set [1] (setting [4]) is 100% @ 1 h. The SIF in data set [2] (setting [5]) is reported as 95% @ 1 h. In the data set “Plasma Stability” (setting [6]), the “human Plasma stability” value turned out to be 98% @ 1 h. The compound further showed a Papp at 90 min, 10 µM in data set [3] (setting [7]) of 23.7 ×10⁻⁶ cm/s.
In the case of `CC(C)OCCn1c(SCOC(=O)N(C)Cc2ccccc2)nc(=O)c2[nH]ccc21.O=C(O)C(F)(F)F` [Example 173], the SGF in data set [1] (setting [4]) is 95% @ 1 h. The SIF in data set [2] (setting [5]) is reported as 99% @ 1 h. Further, the “human Plasma stability” value in the data set “Plasma Stability” (setting [6]) amounted to 99% @ 1 h. Moreover, the Papp at 90 min, 10 µM in data set [3] (setting [7]) turned out to be 20.5 ×10⁻⁶ cm/s.
On to `CC(C)OCCn1c(SCOC(=O)N(C)CCc2ccccc2)nc(=O)c2[nH]ccc21.O=C(O)C(F)(F)F` [Example 175], for which the SGF in data set [1] (setting [4]) was 99% @ 1 h. Further, the SIF in data set [2] (setting [5]) was 92% @ 1 h. The “human Plasma stability” value in the data set “Plasma Stability” (setting [6]) came to 95% @ 1 h. In data set [3] (setting [7]), this compound returned a Papp at 90 min, 10 µM of 30.9 ×10⁻⁶ cm/s.
Turning to `CC(C)OCCn1c(SCOC(=O)N(C)CCc2ccccc2)nc(=O)c2c1ccn2COC(=O)N(C)CCc1ccccc1.O=C(O)C(F)(F)F` [Example 176], in data set [1] (setting [4]), the SGF is recorded as 86% @ 1 h. Also, in data set [2] (setting [5]), the SIF was 100% @ 1 h. Besides, the “human Plasma stability” value in the data set “Plasma Stability” (setting [6]) is recorded as 99% @ 1 h. The compound further displayed a Papp at 90 min, 10 µM in data set [3] (setting [7]) of 40.4 ×10⁻⁶ cm/s.
For `C=CCN(C)C(=O)OCSc1nc(=O)c2[nH]ccc2n1CCOC(C)C.O=C(O)C(F)(F)F` [Example 177], in that order: 99% @ 1 h, 89% @ 1 h, 99% @ 1 h and 15.2 ×10⁻⁶ cm/s.
Consider `C=CCN(C)C(=O)OCSc1nc(=O)c2c(ccn2COC(=O)N(C)CC=C)n1CCOC(C)C.O=C(O)C(F)(F)F` [Example 178], for which the SGF in data set [1] (setting [4]) was 99% @ 1 h. In addition, the SIF in data set [2] (setting [5]) is 75% @ 1 h. The “human Plasma stability” value in the data set “Plasma Stability” (setting [6]) is 86% @ 1 h. In data set [3] (setting [7]), the Papp at 90 min, 10 µM came to 19.4 ×10⁻⁶ cm/s.
Take `C=CCCN(C)C(=O)OCSc1nc(=O)c2[nH]ccc2n1CCOC(C)C.O=C(O)C(F)(F)F` [Example 179]: in data set [1] (setting [4]), the SGF was 95% @ 1 h. Also, the SIF in data set [2] (setting [5]) was 91% @ 1 h. In addition, the “human Plasma stability” value in “Plasma Stability” (setting [6]) was 99% @ 1 h. Also, in data set [3] (setting [7]), the Papp at 90 min, 10 µM came out at 14.5 ×10⁻⁶ cm/s.
For `C=CCCN(C)C(=O)OCSc1nc(=O)c2c(ccn2COC(=O)N(C)CCC=C)n1CCOC(C)C.O=C(O)C(F)(F)F` [Example 180], in that order: 99% @ 1 h, 82% @ 1 h, 99% @ 1 h and 25.9 ×10⁻⁶ cm/s.
As for `CC(C)OCCn1c(=S)[nH]c(=O)c2c1ccn2COC(N)=O` [Example 181, Carbamic acid 1-(2-isopropoxy-ethyl)-4-oxo-2-thioxo-1,2,3,4-tetrahydro-pyrrolo[3,2-d]pyrimidin-5-ylmethyl ester], the SGF in data set [1] (% remaining at 1 h, SGF with pepsin pH 1.2, 2 μg/mL, 37° C.) is 82%. For the same compound, the SIF in data set [2] (% remaining at 1 h, SIF with pancreatin pH 6.8, 2 μg/mL, 37° C.) is recorded as 97%. The “human Plasma stability” value in the data set “Plasma Stability” (% remaining at 1 h, human plasma, 1 μM, 37° C.) worked out at 99%. Also, the Papp at 90 min, 10 µM in data set [3] (Caco-2, pH 7.4, donor 10 μM, 90 minutes, 37° C., direction not given) was 21.8 ×10⁻⁶ cm/s.
As to `CCCNC(=O)OCSc1nc(=O)c2c(ccn2COC(=O)NCCC)n1CCOC(C)C` [Example 183], the SGF in data set [1] (setting [8]) is 94% @ 1 h. Further, the SIF in data set [2] (setting [9]) was 99% @ 1 h. Moreover, in the data set “Plasma Stability” (setting [10]), the “human Plasma stability” value amounted to 92% @ 1 h. Moreover, the Papp at 90 min, 10 µM in data set [3] (setting [11]) was determined as 4.59 ×10⁻⁶ cm/s.
For `CC(C)CNC(=O)OCSc1nc(=O)c2[nH]ccc2n1CCOC(C)C` [Example 186], in that order: 86% @ 1 h, 100% @ 1 h, 98% @ 1 h and 7.23 ×10⁻⁶ cm/s.
With `CC(C)CNC(=O)OCSc1nc(=O)c2c(ccn2C(=O)NCC(C)C)n1CCOC(C)C` [Example 187], in data set [1] (setting [8]), the SGF is 97% @ 1 h. In addition, in data set [2] (setting [9]), the SIF is recorded as 97% @ 1 h. Also, the “human Plasma stability” value in the data set “Plasma Stability” (setting [10]) is 96% @ 1 h. In addition, the Papp at 90 min, 10 µM in data set [3] (setting [11]) was determined as 33.1 ×10⁻⁶ cm/s.
Consider `CC(C)CNC(=O)OCSc1nc(=O)c2c(ccn2COC(=O)NCC(C)C)n1CCOC(C)C` [Example 188], for which the SGF in data set [1] (setting [8]) was 98% @ 1 h. Further, in data set [2] (setting [9]), the SIF is on record as 97% @ 1 h. Also, the “human Plasma stability” value in “Plasma Stability” (setting [10]) was 99% @ 1 h. In data set [3] (setting [11]), this compound displayed a Papp at 90 min, 10 µM of 11.7 ×10⁻⁶ cm/s.
On to `CCN(C(=O)OCSc1nc(=O)c2c(ccn2COC(=O)N(CC)C(C)C)n1CCOC(C)C)C(C)C` [Example 189], for which, in data set [1] (setting [8]), the SGF is 99% @ 1 h. Further, the SIF in data set [2] (setting [9]) is 97% @ 1 h. Besides, the “human Plasma stability” value in “Plasma Stability” (setting [10]) stood at 98% @ 1 h. The compound further returned a Papp at 90 min, 10 µM in data set [3] (setting [11]) of 30.6 ×10⁻⁶ cm/s.
`CCN(C(=O)OCSc1nc(=O)c2[nH]ccc2n1CCOC(C)C)C(C)C` [Example 190]: in data set [1] (setting [8]), the SGF is given as 99% @ 1 h. Also, in data set [2] (setting [9]), the SIF was 98% @ 1 h. Further, the “human Plasma stability” value in the data set “Plasma Stability” (setting [10]) is 99% @ 1 h. This compound also had a Papp at 90 min, 10 µM in data set [3] (setting [11]) of 13.8 ×10⁻⁶ cm/s.
On to `CC(C)OCCn1c(=S)[nH]c(=O)c2c1ccn2C(=O)OC(C)(C)C` [Example 191], for which the SGF in data set [1] (setting [8]) is 15% @ 1 h. Moreover, the SIF in data set [2] (setting [9]) was 82% @ 1 h. In addition, in “Plasma Stability” (setting [10]), the “human Plasma stability” value is recorded as 16% @ 1 h. Further, the Papp at 90 min, 10 µM in data set [3] (setting [11]) was determined as 1.08 ×10⁻⁶ cm/s.
With `CC(C)OCCn1c(SCOC(=O)NCc2ccccc2)nc(=O)c2[nH]ccc21` [Example 192], the SGF in data set [1] (setting [8]) is listed as 100% remaining. Also, the SIF in data set [2] (setting [9]) is 50% remaining. In the data set “Plasma Stability” (setting [10]), the “human Plasma stability” value came to 97% remaining. For the same compound, the Papp at 90 min, 10 µM in data set [3] (setting [11]) was determined as 3.84 ×10⁻⁶ cm/s.
For `CC(C)OCCn1c(SCOC(=O)NCc2ccccc2)nc(=O)c2c1ccn2C(=O)NCc1ccccc1` [Example 193], in that order: 98% remaining, 57% remaining, 95% remaining and 31.6 ×10⁻⁶ cm/s.
As for `CCCCNC(=O)OCSc1nc(=O)c2c(ccn2C(=O)NCCCC)n1CCOC(C)C` [Example 194], the SGF in data set [1] (setting [8]) is 99% remaining. Further, the SIF in data set [2] (setting [9]) is reported as 59% remaining. The “human Plasma stability” value in “Plasma Stability” (setting [10]) stood at 97% remaining. This compound also gave a Papp at 90 min, 10 µM in data set [3] (setting [11]) of 42.9 ×10⁻⁶ cm/s.
